Assay results from patent US20250171431A1, “HETEROCYCLIC INHIBITORS OF IGF-1R FOR TREATMENT OF DISEASE” (HORIZON THERAPEUTICS IRELAND DAC, priority 2023, published 2025).

Target: IGF-1R (Homo sapiens (Human), UniProt P08069)
Assay: Example B-1: IGF-1R Assay (PC3 cells, IGF1 stimulation, AlphaLISA)
Type: cell-based
Conditions: 200 ng/mL IGF1 stimulation, read-out: Biological Activity against IGF-1R IC50
How it was run: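 PC3 cells were serum-starved 2 h, treated with serially diluted compounds for 2 h, then stimulated with IGF1 (200 ng/mL final) for 30 min. Lysates were read by AlphaLISA; % inhibition was calculated relative to vehicle and EC80 controls, with IC50 values binned into ranges.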

Chain of IGF-1R (P08069 31-1367): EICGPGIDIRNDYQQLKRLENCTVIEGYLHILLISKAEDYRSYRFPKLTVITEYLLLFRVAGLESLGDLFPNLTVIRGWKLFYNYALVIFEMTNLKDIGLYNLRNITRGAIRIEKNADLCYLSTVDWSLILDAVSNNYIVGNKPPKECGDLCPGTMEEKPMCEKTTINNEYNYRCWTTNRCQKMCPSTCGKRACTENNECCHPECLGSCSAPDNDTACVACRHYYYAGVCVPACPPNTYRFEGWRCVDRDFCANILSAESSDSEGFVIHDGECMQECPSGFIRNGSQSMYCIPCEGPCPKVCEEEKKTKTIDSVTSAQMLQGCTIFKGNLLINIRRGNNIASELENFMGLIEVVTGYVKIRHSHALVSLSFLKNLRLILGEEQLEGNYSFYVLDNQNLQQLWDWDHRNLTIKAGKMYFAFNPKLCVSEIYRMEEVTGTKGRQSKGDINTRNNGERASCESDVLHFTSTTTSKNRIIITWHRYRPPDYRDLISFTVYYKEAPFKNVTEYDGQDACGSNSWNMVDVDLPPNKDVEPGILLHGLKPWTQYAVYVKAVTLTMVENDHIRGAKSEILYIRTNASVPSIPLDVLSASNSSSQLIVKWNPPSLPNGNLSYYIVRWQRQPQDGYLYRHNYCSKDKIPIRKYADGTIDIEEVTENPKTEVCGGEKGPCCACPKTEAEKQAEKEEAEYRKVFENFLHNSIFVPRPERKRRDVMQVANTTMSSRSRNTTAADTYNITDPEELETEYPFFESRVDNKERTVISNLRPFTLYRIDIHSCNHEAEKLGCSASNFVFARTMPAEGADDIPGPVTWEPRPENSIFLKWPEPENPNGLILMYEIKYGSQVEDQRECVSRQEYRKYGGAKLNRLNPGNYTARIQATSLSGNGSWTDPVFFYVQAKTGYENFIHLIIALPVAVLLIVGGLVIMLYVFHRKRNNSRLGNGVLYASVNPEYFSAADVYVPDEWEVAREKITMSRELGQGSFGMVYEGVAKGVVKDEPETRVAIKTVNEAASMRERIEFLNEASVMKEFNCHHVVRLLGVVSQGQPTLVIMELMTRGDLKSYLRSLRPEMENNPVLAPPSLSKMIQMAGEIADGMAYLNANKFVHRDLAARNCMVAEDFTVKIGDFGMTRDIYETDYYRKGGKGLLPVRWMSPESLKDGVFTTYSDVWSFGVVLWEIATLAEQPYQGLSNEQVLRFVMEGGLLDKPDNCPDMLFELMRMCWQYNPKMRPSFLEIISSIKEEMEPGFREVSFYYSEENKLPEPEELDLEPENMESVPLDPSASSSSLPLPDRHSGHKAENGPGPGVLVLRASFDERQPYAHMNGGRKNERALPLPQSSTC

Row | Structure (SMILES) | IC50 [µM]
1 | COc1cc(Nc2nccc(Nc3cnc4c(c3)OC(C)CO4)n2)ccc1OCCCN1CCCCC1 (centres unmarked) [Compound 387, 2-[3-methoxy-4-(3-piperidinopropoxy)phenylamino]-4-(2-methyl-2,3-dihydro-1,4-dioxa-5-aza-7-naphthylamino)pyrimidine] | ≤ 0.5
2 | c1cc(Nc2cnc3c(c2)OCCO3)nc(Nc2ccc(OCCCN3CCOCC3)cc2)n1 [Compound 388, 4-(2,3-dihydro-1,4-dioxa-5-aza-7-naphthylamino)-2-[p-(3-morpholinopropoxy)phenylamino]pyrimidine] | ≤ 0.5
3 | COc1cc(Nc2nccc(Nc3cnc4c(c3)OCCO4)n2)ccc1OCCCN1CCOCC1 [Compound 389, 4-(2,3-dihydro-1,4-dioxa-5-aza-7-naphthylamino)-2-[3-methoxy-4-(3-morpholinopropoxy)phenylamino]pyrimidine] | ≤ 0.5
4 | O=S1(=O)CCc2ncc(Nc3ccnc(Nc4ccc(OCCCN5CCOCC5)cc4)n3)cc2C1 [Compound 390, 3-{2-[p-(3-morpholinopropoxy)phenylamino]-4-pyrimidinylamino}-5,6,7,8-tetrahydro-6H,6H-6λ^6-thia-1-azanaphthalene-6,6-dione] | 0.5 to 2
5 | COc1cc(Nc2nccc(Nc3cnc4c(c3)CS(=O)(=O)CC4)n2)ccc1OCCCN1CCCCC1 [Compound 391, 3-{2-[3-methoxy-4-(3-piperidinopropoxy)phenylamino]-4-pyrimidinylamino}-5,6,7,8-tetrahydro-6H,6H-6λ^6-thia-1-azanaphthalene-6,6-dione] | 2 to 10
6 | COc1cc(Nc2nccc(Nc3cnc4c(F)c(F)ccc4c3)n2)ccc1OCCCN1CCCCC1 [Compound 393, 4-(7,8-difluoro-3-quinolylamino)-2-[3-methoxy-4-(3-piperidinopropoxy)phenylamino]pyrimidine] | ≤ 0.5
7 | c1ccc2ncc(Nc3ccnc(Nc4ccc(OCCCN5CCOCC5)cc4)n3)cc2c1 [Compound 394, 2-[p-(3-morpholinopropoxy)phenylamino]-4-(3-quinolylamino)pyrimidine] | ≤ 0.5
8 | FC(F)(F)c1ccc2cc(Nc3ccnc(Nc4ccc(OCCCN5CCOCC5)cc4)n3)cnc2c1 [Compound 395, 2-[p-(3-morpholinopropoxy)phenylamino]-4-[7-(trifluoromethyl)-3-quinolylamino]pyrimidine] | 2 to 10
9 | N#Cc1ccc2ncc(Nc3ccnc(Nc4ccc(OCCCN5CCOCC5)cc4)n3)cc2c1 [Compound 396, 3-{2-[p-(3-morpholinopropoxy)phenylamino]-4-pyrimidinylamino}-6-quinolinecarbonitrile] | 2 to 10
10 | CCc1ccc2cc(Nc3ccnc(Nc4ccc(OCCCN5CCOCC5)cc4)n3)cnc2c1 [Compound 397, 4-(7-ethyl-3-quinolylamino)-2-[p-(3-morpholinopropoxy)phenylamino]pyrimidine] | 2 to 10
11 | O=S1(=O)CCN(CCCOc2ccc(Nc3nccc(Nc4cnc5c(Cl)cccc5c4)n3)cc2)CC1 [Compound 398, 4-(3-{p-[4-(8-chloro-3-quinolylamino)-2-pyrimidinylamino]phenoxy}propyl)-1λ^6,4-thiazinane-1,1-dione] | ≤ 0.5
12 | O=S1(=O)CCN(CCCOc2ccc(Nc3nccc(Nc4cnc5cc(Cl)ccc5c4)n3)cc2)CC1 [Compound 399, 4-(3-{p-[4-(7-chloro-3-quinolylamino)-2-pyrimidinylamino]phenoxy}propyl)-1λ^6,4-thiazinane-1,1-dione] | 2 to 10
13 | COc1ccc2cc(Nc3ccnc(Nc4ccc(OCCCN5CCS(=O)(=O)CC5)cc4)n3)cnc2c1 [Compound 400, 4-(3-{p-[4-(7-methoxy-3-quinolylamino)-2-pyrimidinylamino]phenoxy}propyl)-1λ^6,4-thiazinane-1,1-dione] | 0.5 to 2
14 | Clc1ccc2ncc(Nc3ccnc(Nc4ccc(OCCCN5CCOCC5)cc4)n3)cc2c1 [Compound 401, 4-(6-chloro-3-quinolylamino)-2-[p-(3-morpholinopropoxy)phenylamino]pyrimidine] | ≤ 0.5
